Measurements published in patent US5576022A, “Controlled release tacrine drug delivery systems and methods for preparing same” (Warner Lambert Company, priority 1995, dated 1996).

Assays:
[1] = background; cited from earlier work
[2] = Single-dose 40-mg pharmacokinetics of CR1, CR2, CR6 and CR7 capsules in healthy elderly volunteers (Example 12); assay type: in vivo, human; conditions: all of the formulations
From the text: The study objective was to determine the relative bioavailability and in vivo release characteristics of a 40-mg tacrine IR capsule (CR1) and three prototype 40-mg tacrine CR capsules (CR2, CR6 and CR7) to aid in the development of a tacrine controlled-release formulation. Sixteen healthy volunteers received a single 40-mg tacrine dose of CR1, CR2, CR6, or CR7 according to a randomized, 4-way crossover design (Table 6). Subjects ranged in age from 59 to 77 years (mean=67). […] Serial blood samples were drawn up to 24 hours following each dose and were subsequently analyzed for tacrine, 1-OH tacrine, 2-OH tacrine, and 4-OH tacrine.

[3] = Single-dose 40-mg pharmacokinetics of CR1, CR3, CR4 and CR5 capsules in healthy elderly volunteers (Example 11, Protocol 970-36); conditions: all of the formulations
Method: Subjects ranged in age form 50 to 74 years (mean=62). None of the subjects were smokers. Serial blood samples were drawn up to 24 hours following each dose and subsequently analyzed for tacrine.
Lag-time (tlag) between dose administration and apparent start of absorption was determined as the sampling time immediately preceding time of the first quantifiable plasma concentration.
Extent of absorption was assessed by evaluation of AUC(O-tldc) values. […] Relative extent of absorption values based on AUC(O-.infin.) values were similar to those based on AUC(O-tldc).

Compound	absorption and elimination in words [1]	Plasma 1-OH tacrine concentrations relative to tacrine [2]	Plasma 1-OH tacrine concentrations relative to tacrine [3]
Cl.Nc1c2c(nc3ccccc13)CCCC2 [tacrine, 1,2,3,4-tetrahydro-9-acridinamine hydrochloride]	rapidly absorbed and eliminated		
Nc1c2c(nc3ccccc13)CCCC2O (stereo not drawn) [1-OH tacrine]		approximately three times higher	approximately two times higher
